{"source": "patent US20230138327A1", "about": "“COMPOSITIONS AND METHODS CONTAINING REDUCED NICOTINAMIDE RIBOSIDE FOR PREVENTION AND TREATMENT OF PANCREATIC DISEASES AND CONDITIONS” (SOCIETE DES PRODUITS NESTLE S.A., priority 2020, published 2023)", "assay": "Tissue NRH levels in mice after oral gavage (LC-MS)", "assay_type": "in vivo", "details": "oral gavage 250 mg/kg (stable isotope-labelled NRH), 2 hours", "description": "(§1) 8 week-old C57BI/6NTac mice were orally gavaged with either saline (as vehicle), and an stable isotope-labelled NRH (250 mg/kg). After 2 hours, pancreas NRH levels were evaluated. All results are expressed as mean+/−SEM of n=4 mice per group, as areas under the signal by LC-MS analysis, corrected by total protein amount of tissue.\nas §1, with “and” for “and an stable isotope-labelled”, “liver, skeletal muscle and kidney” for “pancreas”\nLevels of NRH and other NAD-related metabolites in biological samples were obtained by using a cold liquid-liquid extraction using a mixture of methanol:water:chloroform in 5:3:5 (v/v), from which the polar phase was recovered for hydrophilic interaction ultra-high performance liquid chromatography mass spectrometry (UHPLC-MS) analysis. The UHPLC consisted of a binary pump, a cooled autosampler, and a column oven (DIONEX Ultimate 3000 UHPLC+ Focused, Thermo Scientific), connected to a triple quadrupole spectrometer (TSQ Vantage, Thermo Scientific) equipped with a heated electrospray ionisation (H-ESI) source. […]"}
{"smiles": "NC(=O)C1=CN([C@@H]2O[C@H](CO)[C@@H](O)[C@H]2O)C=CC1", "note": "[NRH]", "values": [{"measurement": "NRH levels in pancreas", "result": "high levels"}]}
